# Test results: BindingDB's records for doi:10.1016/0960-894X(95)00404-H (1995)
# Assay: Binding affinity to protein phosphatase, calcineurin (CN) was determined
row,Kd [nM],SMILES
1,20,C=CC[C@@H]1/C=C(\C)C[C@H](C)C[C@H](OC)[C@H]2O[C@@](O)(C(=O)C(=O)N3CCCC[C@H]3C(=O)O[C@H](/C(C)=C/[C@@H]3CC[C@@H](O)[C@H](OC)C3)[C@H](C)[C@@H](O)CC1=O)[C@H](C)C[C@@H]2OC
2,350,"C=CC[C@@H]1/C=C(\C)C[C@H](C)C[C@H](OC)[C@@H](O)[C@@H](OC)C[C@@H](C)CC(=O)C(=O)N2CCCC[C@H]2C(=O)O[C@H](/C(C)=C/[C@@H]2CC[C@@H](O)[C@H](OC)C2)[C@H](C)[C@@H](O)CC1=O [18-(E)-allyl-11,21-Dihydroxy-23-[2-((R)-4-hydroxy-3-methoxy-cyclohexyl)-1-methyl-vinyl]-10,12-dimethoxy-8,14,16,22-pentamethyl-1,3,4,7,8,9,10,11,12,13,14,15,18,20,21,22,23,25a-octadecahydro-2H-24-oxa-4a-aza-benzocyclotricosene-5,6,19,25-tetraone]"
3,300,"C=CC[C@@H]1/C=C(\C)C[C@H](C)C[C@H](OC)[C@@H](O)[C@@H](OC)C[C@@H](C)c2ncoc2C(=O)N2CCCC[C@H]2C(=O)O[C@H](/C(C)=C/[C@@H]2CC[C@@H](O)[C@H](OC)C2)[C@H](C)C(O)CC1=O (stereo partly drawn) [(E)-18-Allyl-11,21-dihydroxy-23-[(E)-2-((R)-4-hydroxy-3-methoxy-cyclohexyl)-1-methyl-vinyl]-10,12-dimethoxy-8,14,16,22-tetramethyl-4,24-dioxa-1,6-diaza-tricyclo[24.4.0.0*3,7*]triaconta-3(7),5,16-triene-2,19,25-]"

# More lines, now with the values behind:
row,SMILES,Kd [nM]
1,"CCCC1C(=O)CC[C@@H](C)[C@@H](CCc2cccnc2)OC(=O)[C@@H]2CCCN(C2)C(=O)C(=O)CSCC[C@@H](OC)C[C@@H](C)CC(=O)N1C (stereo partly drawn) [(8S,10R,18R,19R,22R)-8-Methoxy-10,13,18-trimethyl-14-propyl-19-(2-pyridin-3-yl-ethyl)-20-oxa-5-thia-1,13-diaza-bicyclo[20.3.1]hexacosane-2,3,12,15,21-pentaone]",> 1000
2,"CCCC1C(=O)CC[C@@H](C)[C@@H](CCc2cccnc2)OC(=O)[C@@H]2CCCN(C2)C(=O)C(O)CC[S+]([O-])CC[C@@H](OC)C[C@@H](C)CC(=O)N1C (stereo partly drawn) [(9S,11R,19R,20R,23R)-3-Hydroxy-9-methoxy-11,14,19-trimethyl-6-oxo-15-propyl-20-(2-pyridin-3-yl-ethyl)-21-oxa-6lambda*4*-thia-1,14-diaza-bicyclo[21.3.1]heptacosane-2,13,16,22-tetraone]",> 1000
3,"CCC(C)C1C(=O)CC[C@@H](C)[C@@H](CCc2cccnc2)OC(=O)[C@@H]2CCCN(C2)C(=O)C(=O)CCSCC[C@@H](OC)C[C@@H](C)CC(=O)N1C (stereo partly drawn) [(9S,11R,19R,20R,23R)-15-sec-Butyl-9-methoxy-11,14,19-trimethyl-20-(2-pyridin-3-yl-ethyl)-21-oxa-6-thia-1,14-diaza-bicyclo[21.3.1]heptacosane-2,3,13,16,22-pentaone]",> 1000
